What is called Kd is the constant that tells how readily two partners part at equilibrium.

For 102 compounds, Kd results are on record in PubChem BioAssay AID1552 (Sanford-Burnham Center for Chemical Genomics, 2009).

Activity calls are given as the source filed them. The rule behind the calls is not given here.

The target in this assay is Ubiquitin-conjugating enzyme E2 N (Homo sapiens) (UniProt P61088). The assay can be described thus: NMR detection of UBE2N ligand binding – biophysical, purified protein (AID 1552). Conditions: NMR binding to purified UBE2N.
Chain of Ubiquitin-conjugating enzyme E2 N (Homo sapiens) (P61088 whole entry, looked up): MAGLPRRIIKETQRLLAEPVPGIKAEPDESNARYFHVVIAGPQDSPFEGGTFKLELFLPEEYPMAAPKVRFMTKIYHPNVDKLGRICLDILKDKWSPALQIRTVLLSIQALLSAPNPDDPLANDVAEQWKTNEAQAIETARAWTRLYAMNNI
For `Cc1nn(CC(=O)Nc2ccccc2)c(=O)c2ccccc12`, the Kd was > 4 mM (inactive).

As to `CCCCCCCCCCCC[C@H](C(=O)O)[C@@H](C)C(=O)O`, the Kd was > 4 mM (inactive).

As for `CC(=O)CC1(O)C(=O)Nc2ccc(Br)cc21` (configuration not stated), the Kd is > 4 mM (inactive).

As for `O=C1N=c2ccccc2=C1c1[nH]c(=S)[nH]c1O`, the Kd was > 4 mM (inactive).

Consider `CC(=O)NCC1(c2ccccc2)CCOCC1`, for which the Kd was > 4 mM (inactive).

Regarding `COc1ccccc1C(=O)Nc1ccccn1`, the Kd was > 4 mM (inactive).

Consider `O=C(NC1CCS(=O)(=O)C1)c1ccccc1` (configuration not stated), for which the Kd was > 4 mM (inactive).

Turning to `c1ccc(Cn2cccc2)nc1`, the Kd was > 4 mM (inactive).

Turning to `C[C@H](CCC(=O)O)[C@H]1CCC2C3C(CC[C@@]21C)[C@@]1(C)CC[C@@H](O)C[C@H]1C[C@H]3O` (some centres not stated), the Kd is > 4 mM (inactive).

On to `CCCCN1C(=O)N(C)C2NC(=O)NC21` (configuration not stated), for which the Kd is > 4 mM (inactive).

In the case of `Cn1ccc(NC(=S)Nc2cccc([N+](=O)[O-])c2)n1`, the Kd was > 4 mM (inactive).

For `CCOC(=O)C1CN(C)CCN1C` (configuration not stated), the Kd was > 4 mM (inactive).

For the compound `CC(=O)NC(O)C(=O)c1ccccc1` (configuration not stated), the Kd is > 4 mM (inactive).

Turning to `O=C(Nn1cnnc1)c1cccc(C(F)(F)F)c1`, the Kd is > 4 mM (inactive).

Regarding `Cc1cc2ncc(C(=O)O)c(C)n2n1`, the Kd is > 4 mM (inactive).

On to `CN1CCC(O)N1C(=O)c1ccccc1O` (configuration not stated), for which the Kd is > 4 mM (inactive).

Consider `O=C(NCc1ccccc1Cl)c1cnn2cccnc12`, for which the Kd is > 4 mM (inactive).

Take `CCn1ncc(Cl)c1C(=O)Nc1ccncc1`: the Kd was > 4 mM (inactive).

As for `CC(C)NC(=S)N1CCN(S(C)(=O)=O)CC1`, the Kd was > 4 mM (inactive).

With `CC(=O)N1CC2(C)CN(C(C)=O)CC(C)(C1)C2`, the Kd is > 4 mM (inactive).

With `OC[C@H]1O[C@@](CO)(O[C@@H]2O[C@H](CO)[C@@H](O)[C@H](O)[C@H]2O)[C@@H](O[C@@H]2O[C@H](CO)[C@@H](O)[C@H](O)[C@H]2O)[C@@H]1O`, the Kd is > 4 mM (inactive).

Consider `CC1(C)CC(=O)c2cnn(-c3nc4ccccc4[nH]3)c2C1`, for which the Kd was > 4 mM (inactive).

Take `CNc1nc(OC)nc(N2CCOCC2)n1`: the Kd was > 4 mM (inactive).

On to `CNC(=O)n1ccc(C(=O)N2CCCCC2)n1`, for which the Kd is > 4 mM (inactive).

For the compound `CCn1nnc(NC(=O)c2ccccc2Br)n1`, the Kd is > 4 mM (inactive).

Take `CC1=CC(C)C(C(=O)O)C(C(=O)N2CCN(C)CC2)C1` (configuration not stated): the Kd is > 4 mM (inactive).

Consider `CCc1noc(C)c1C(=O)N1CCCC1`, for which the Kd was > 4 mM (inactive).

With `COc1ccccc1NC(=O)c1snnc1C`, the Kd is > 4 mM (inactive).

Regarding `O=C(O)c1cc(O)c2c(c1)[C@@H]([C@H]1c3cc(C(=O)O)cc(O)c3C(=O)c3c(O[C@H]4O[C@H](CO)[C@@H](O)[C@H](O)[C@H]4O)cccc31)c1cccc(O[C@H]3O[C@H](CO)[C@@H](O)[C@H](O)[C@H]3O)c1C2=O`, the Kd is > 4 mM (inactive).

Consider `O=C(O)C1CSC2(CCCCC2)N1` (configuration not stated), for which the Kd is > 4 mM (inactive).

In the case of `COC(=O)N1CCN(c2ccc(C(C)=O)cc2)CC1`, the Kd was > 4 mM (inactive).

For the compound `COc1ccc2cnn(-c3ccccc3)c(=O)c2c1OC`, the Kd was > 4 mM (inactive).

Consider `Cc1cc(NC(=O)CCCn2cnc([N+](=O)[O-])n2)no1`, for which the Kd is > 4 mM (inactive).

For `COc1ccc(-c2ccc(SCC(N)=O)nn2)cc1`, the Kd was > 4 mM (inactive).

On to `COc1ccccc1/C=C/CN1CCOCC1`, for which the Kd is > 4 mM (inactive).

As for `Cc1ccc(SCC(=O)N2CCOCC2)cc1`, the Kd was > 4 mM (inactive).

For `Cc1sc2nc(-c3ccco3)oc(=O)c2c1C`, the Kd is > 4 mM (inactive).

As for `CN1CCN(CC(=O)Nc2ccccc2)CC1`, the Kd was > 4 mM (inactive).

With `CC(CC(=O)NN)C1(O)CCCCC1` (configuration not stated), the Kd was > 4 mM (inactive).

On to `Cc1cc(O)cc(=O)n1CCCC(=O)O`, for which the Kd is > 4 mM (inactive).

`COc1cccc(NC(=O)c2cnn(C)c2Cl)c1`: the Kd was > 4 mM (inactive).

In the case of `COc1cc2c(cc1OC)-c1nnnn1C(C)(C)C2`, the Kd is > 4 mM (inactive).

Take `CC(CCC(=O)O)[C@H]1CCC2C3C[C@H](O)[C@@H]4C[C@H](O)CC[C@]4(C)C3CC[C@@]21C` (some centres not stated): the Kd is > 4 mM (inactive).

On to `COc1cc2c(cc1OC)[C@@H]1C(=O)c3ccc4c(c3O[C@@H]1CO2)CC(C(C)C)O4` (some centres not stated), for which the Kd is > 4 mM (inactive).

In the case of `COc1ccccc1/C=C\C(=O)O`, the Kd is > 4 mM (inactive).

As for `Cc1n[nH]c(=S)n1-c1ccc(C(=O)O)cc1`, the Kd is > 4 mM (inactive).

For `COC(=O)c1scc(C)c1N`, the Kd was > 4 mM (inactive).

As to `Cc1c(F)cccc1NS(=O)(=O)c1ccccc1C#N`, the Kd was > 4 mM (inactive).

For the compound `CC(C)Oc1ccc(C2CC(=O)NNC2=O)cc1` (configuration not stated), the Kd is > 4 mM (inactive).

Regarding `COc1ccc(-c2cc(=O)c3ccccc3o2)cc1OC`, the Kd was > 4 mM (inactive).

Regarding `CN1CCN(CC(=O)N2CCc3ccccc32)CC1`, the Kd was > 4 mM (inactive).

As to `COc1ccc(/C=N/n2cn[nH]c2=S)cc1`, the Kd is > 4 mM (inactive).

As for `Cc1nc(-c2ccccc2)sc1CN`, the Kd is > 4 mM (inactive).

For `CN(c1ccccc1C(=O)N1CCCC1)S(C)(=O)=O`, the Kd is > 4 mM (inactive).

`N=C1/C(=C\c2ccco2)C(=O)N=C2SC=NN12`: the Kd is > 4 mM (inactive).

Turning to `CN(C)Cc1c(N)cccc1O`, the Kd is > 4 mM (inactive).

Take `COCCn1c(N)nc2c1c(=O)[nH]c(=O)n2C`: the Kd was > 4 mM (inactive).

In the case of `O=c1sc2ccccc2n1CN1CCOCC1`, the Kd was > 4 mM (inactive).

As to `OCc1ccccc1CN1CCOCC1`, the Kd was > 4 mM (inactive).

Turning to `CNc1nc(C)nc(-n2nc(C)cc2C)n1`, the Kd was > 4 mM (inactive).

Take `O=C(Nc1ccccc1)Nc1ccccc1`: the Kd was > 4 mM (inactive).

On to `Cc1oc(-c2ccccc2)cc1C(N)=O`, for which the Kd is > 4 mM (inactive).

As to `CN1CCC[C@H]1c1cccnc1`, the Kd is > 4 mM (inactive).

Consider `Cc1nn(C)c(Cl)c1S(=O)(=O)N1CCOCC1`, for which the Kd was > 4 mM (inactive).

Turning to `CCOC(=O)C1CCN(c2ccc(C#N)cc2)CC1`, the Kd was > 4 mM (inactive).

Regarding `COc1ccc(S(=O)(=O)N2CCC(C(N)=O)CC2)cc1`, the Kd was > 4 mM (inactive).

For `O=C1c2ccccc2C(=O)c2c(O)c(O)cc(O)c21`, the Kd is > 4 mM (inactive).

In the case of `O=C(O)CSc1nnc(-c2cccs2)o1`, the Kd is > 4 mM (inactive).

For the compound `CCOC(=O)C(C)c1n[nH]c(=O)c2ccccc12` (configuration not stated), the Kd is > 4 mM (inactive).

With `CC(=O)NC(C)(C)C1CC=C(C)/C(=N\O)C1` (configuration not stated), the Kd was > 4 mM (inactive).

Turning to `CC(=O)O[C@@H]1CC2C(C)(C)[C@@H](O)CC[C@]2(C)C2CC[C@@]3(C)[C@H](c4ccoc4)OC(=O)[C@H]4O[C@]43[C@@]21C` (some centres not stated), the Kd was > 4 mM (inactive).

Take `Cn1c(CN)nc2ccccc21`: the Kd is > 4 mM (inactive).

As to `CC(=O)O[C@H]1CC[C@@]2(C)C(CC[C@]3(C)C2C(=O)C=C2C4[C@@H](C)[C@H](C)CC[C@]4(C(=O)O)CC[C@]23C)C1(C)C` (some centres not stated), the Kd was > 4 mM (inactive).

Regarding `CC[C@@H]1[C@@H](O)N2C3C[C@H]1C1C(O)[C@]4(C[C@@H]12)c1ccccc1N(C)[C@@H]34` (some centres not stated), the Kd is > 4 mM (inactive).

Consider `Cn1cc(C(=O)N/N=C/c2ccccc2)ccc1=O`, for which the Kd is > 4 mM (inactive).

As to `O=C1CN2C(=N1)N(Cc1ccccc1)c1ccccc12`, the Kd was > 4 mM (inactive).

Consider `O=C(CN1C(=O)CCC1=O)c1ccccc1`, for which the Kd was > 4 mM (inactive).

Take `O=C(NC1=NCCS1)c1ccc([N+](=O)[O-])cc1Cl`: the Kd is > 4 mM (inactive).

With `CS/C(N)=C\C(C)=O`, the Kd is > 4 mM (inactive).

On to `Cn1nc(C(C)(C)C)cc1N`, for which the Kd was > 4 mM (inactive).

For `N=C1/C(=C\c2ccccc2)C(=O)N=C2SC=NN12`, the Kd is > 4 mM (inactive).

Consider `CC(=O)NC(c1ccccc1)c1cccnc1` (configuration not stated), for which the Kd is > 4 mM (inactive).

Take `CC(C)NC(=O)c1nc2ccccc2s1`: the Kd was > 4 mM (inactive).

`CNC(=O)c1cc2cccc(OC)c2oc1=O`: the Kd is > 4 mM (inactive).

In the case of `CC1(C)Oc2ccc(N)cc2O1`, the Kd was > 4 mM (inactive).

As for `CCSc1nc2ccccc2n1CC(N)=O`, the Kd is > 4 mM (inactive).

For `Cc1nc2nc(COc3ccccc3)nn2c(C)c1Cl`, the Kd was > 4 mM (inactive).

On to `COc1ccccc1NC(=O)c1ccc(C)s1`, for which the Kd was > 4 mM (inactive).

Regarding `Nc1cccc(-n2cnnn2)c1`, the Kd is > 4 mM (inactive).

Consider `CC(=O)Nc1ccc(C(=O)N2CCOCC2)cc1Cl`, for which the Kd was > 4 mM (inactive).

With `O=c1[nH]cc(N=Cc2ccc(F)cc2)c(=O)[nH]1`, the Kd is > 4 mM (inactive).

As for `Cc1ccc(C)c(C(=O)n2cnnc2N)c1`, the Kd was > 4 mM (inactive).

As to `CC1Cc2nc(SCC(N)=O)n(C)c(=O)c2S1` (configuration not stated), the Kd is > 4 mM (inactive).

With `Cc1oc(-c2ccccc2)cc1C(=O)O`, the Kd was > 4 mM (inactive).

Take `Cc1ccc(C)n1-c1ccc(C(=O)N2CCOCC2)cc1`: the Kd is > 4 mM (inactive).

`NC(=O)NCCCC(N)C(=O)O` (configuration not stated): the Kd was > 4 mM (inactive).

As to `C=C1C(N)CC2CC1C2(C)C` (configuration not stated), the Kd was > 4 mM (inactive).

For the compound `O=C(O)c1cc(=O)[nH]c2ccccc12`, the Kd was > 4 mM (inactive).

With `NCc1ccc2occc2c1`, the Kd is > 4 mM (inactive).

On to `NC(=O)c1ccc(C(N)=O)cc1`, for which the Kd was > 4 mM (inactive).

For `Nc1oncc1-c1ccccn1`, the Kd is > 4 mM (inactive).

As to `CCOc1cc(S(=O)(=O)n2nc(C)cc2C)ccc1F`, the Kd is > 4 mM (inactive).
